Results reported in a compilation of properties of binary mixtures (doi:10.1016/j.molliq.2017.05.115).

Experiment: xn = mol fraction of the nth substance listed
Conditions: 101 kPa

CC[n+]1ccn(C)c1.COS(=O)(=O)[O-] + CCCCCCCO
speed of sound [m/s]
Conditions	x1 = 0.0836	x1 = 0.1703	x1 = 0.2602	x1 = 0.3537	x1 = 0.4508	x1 = 0.5518	x1 = 0.657	x1 = 0.7665	x1 = 0.8808
298.15 K	1330.6	1341.3	1357.7	1380.4	1410.5	–	1499.2	–	1646.1
303.15 K	1319.6	1330.5	1346.9	1369.7	1399.9	1438.8	1488.8	–	1636.2
308.15 K	1299.7	1310.5	1327	–	1380.2	1419.4	1469.8	1534.7	1619.5
